Assays:
[1] = test system: dystrophic New Hampshire chickens, line 413; test: Toxicity (weight change, other symptoms) in dystrophic chickens; type: in vivo, chicken
dystrophic chickens 413 = test: Experiment 4, flip test (25 flips), dystrophic chickens; type: in vivo, chicken
Experimental: All chickens were injected with 50 mg/Kg IAPP and weighed approximately every second or third day.
B, C, D: Experimental-injected with 50 mg/Kg IAPP

[2] = test system: 413 dystrophic skeletal explants; test: Effect on dystrophic skeletal explants in cell culture (microtubules); type: cell-based, chicken; conditions: upon incubation in IAPP, 0.5 mg/ml; skeletal and cardiac explants
Experimental: In these experiments 2-week and 3-week normal and dystrophic chickens (that had no previous injections with IAPP) were sacrificed and skeletal and cardiac explants were placed in culture with 0.5 mg/ml IAPP added. The pooled results of these experiments are as follows: […]

[3] = test system: pectoral muscle fibre of dystrophic chickens; test: Histopathology of pectoral muscle; type: in vivo, chicken; conditions: for % Fibre Splitting / % Phagocytosis / Hypertrophy Factor / Mean Endomysial Area / Nuclei/Fibre / Peripheral Nuclei (% of Total) / Range (endomysial area) / Variability Coefficient: 30 days
Source text: Muscle fibre area increase greatly in the dystrophic chicken as does the range of fibre area sizes. Nuclei become displaced peripherally and both features can be measured quantitatively and compared with normal controls.
The main difference between 4-week (FIG. 1A) and 7-week old (FIG. 2A) normal muscle from pectoral biopsies, at the light microscopic level, is with regard to myofibre growth. There is an increase in fibre area and a redistribution of the position and number of muscle nuclei. The latter change from a random distribution in the fibre in the 4-week bird to a central location in the 7-week bird of about 80% of the nuclei. The fibres are closely packed, with very little connective tissue present and every fibre is clearly polygonal in shape.
In contrast, dystrophic pectoral muscle has very few fibres which appear normal at 4 weeks of age. They are nearly all rounded in shape (as opposed to polygonal) and many are hypertrophic. Longitudinal fibre splitting occurs and the muscle nuclei lie preferentially against the sarcolemma (FIG. 1B). There is a large increase in perimysial connective tissue. By 7 weeks, massive hypertrophy occurs (FIG. 2B). Fibre splitting leads to hyperplasia. […] Pyknotic nuclei appear, and the muscle nuclei are randomly scattered throughout the fibre. Connective tissue often appears very dense. Some fibres are starting to atrophy and fatty tissue replacement can sometimes be seen at this stage.

Carrier monocytes = test: Effect on human monocytes in culture (flat cells), carrier; type: cell-based; conditions: carrier monocytes + IAPP, six individuals, cultured 5-7 days; without IAPP 35.3%; preliminary
Source text: In the experiments adding IAPP to such cultures, the preliminary results were as follows: […]

[4] = test system: normal 412 muscle explants; test: Microtubule complexes in muscle explants of injected normal chickens; type: in vivo, chicken
Source text: Essentially, these experiments were divided into three subgroups, taken from the previous Table:
413A, 413B, 412A, 412B: All were sacrificed after 4 injections and muscle explants placed in culture.
413C, 412C: All were sacrificed after 8 injections and muscle explants were placed in culture.
413D, 412D: All were sacrificed after 10 injections and muscle explants placed in culture.
All explants were placed in CMRL culture medium containing 5% horse serum, 15% fetal bovine serum and 1% antibiotics and allowed to grow for 5-7 days before being fixed and observed for the presence or absence of microtubules. No IAPP was added to the culture medium during the 5-7 days in culture.

## CC(C)Nc1ncccn1.O=P(O)(O)O [IAPP, 2-isopropylaminopyrimidine orthophosphate]
[1]; 300 mg/Kg i.p. three times weekly for 30 days
  Maximum Weight Loss: 17%
[1]; initial single injection 50 mg/Kg, over 7 days
  Weight loss / toxic symptoms: no weight loss over 7 days, nor any other toxic symptoms
[1]; oral 600 mg/Kg daily
  Maximum Weight Loss: 4%
[1]; oral therapy, all doses
  Maximum weight loss, reduction from control values: 7%
Dystrophic chickens 413; 413D experimental animal, day 25, 50 mg/Kg
  Number of flips at which animal fatigued: 19 flips
Dystrophic chickens 413; dystrophic drug injected chickens, 50 mg/Kg
  Flip test outcome: able to pass the flip test
[2]
  Staining of microtubules in dystrophic cells in culture: appears to normalize upon incubation in IAPP
[3]; 150 mg
  % Fibre Splitting: 3.0%
  % Phagocytosis: 0.0%
  Hypertrophy Factor: 125
  Mean Endomysial Area: 1025 μm^2
  Nuclei/Fibre: 2.5
  Peripheral Nuclei (% of Total): 46.1 % of Total
  Range (endomysial area): 82-2001 μm^2
  Variability Coefficient: 416
[3]; 150 mg/Kg daily, 7 week old biopsy
  Fibres still polygonal: 50%
[3]; 200 mg
  % Fibre Splitting: 8.4%
  % Phagocytosis: 1.6%
  Hypertrophy Factor: 460
  Mean Endomysial Area: 763 μm^2
  Nuclei/Fibre: 2.5
  Peripheral Nuclei (% of Total): 59.1 % of Total
  Range (endomysial area): 54-2554 μm^2
  Variability Coefficient: 709
[3]; 300 mg (3× wk.)
  % Fibre Splitting: 3.0%
  % Phagocytosis: 0.0%
  Hypertrophy Factor: 10
  Mean Endomysial Area: 449 μm^2
  Nuclei/Fibre: 1.3
  Peripheral Nuclei (% of Total): 40.9 % of Total
  Range (endomysial area): 51-1060 μm^2
  Variability Coefficient: 518
[3]; 300 mg
  % Fibre Splitting: 10.3%
  % Phagocytosis: 0.3%
  Hypertrophy Factor: 100
  Mean Endomysial Area: 552 μm^2
  Nuclei/Fibre: 1.7
  Peripheral Nuclei (% of Total): 42.1 % of Total
  Range (endomysial area): 24-1226 μm^2
  Variability Coefficient: 580
[3]; 300 mg/Kg 3 times/week at 30 days
  Muscle appearance vs normal muscle: indistinguishable from normal muscle
[3]; i.p.
  Dosage at which histological parameters most closely approximate normal values: 300 mg/Kg
[3]; oral 1 g/Kg daily for 35 days
  Muscle morphology: marked improvements in the muscle morphology
Carrier monocytes
  % Flat Cells: 50.0%
[4]; 412B, Subgroup A, after 4 injections of 50 mg/Kg, 412A control 86%
  % Full Complexes Microtubules: 73%
[4]; 412C, Subgroup B, after 8 injections of 50 mg/Kg
  % Full Complexes Microtubules: 76%
[4]; 412D, Subgroup C, after 10 injections of 50 mg/Kg
  % Full Complexes Microtubules: 80%
